# Experiments:
# [1] = system: rat primary hippocampal neurons; assay: Neurotoxic effect of Aβ1-42 assemblies, MTT viability; assay type: cell-based; details: 20 hr
# Procedure: (§1) Viability of cells was measured by MTT assay. MTT (3-(4,5-Dimethylthiazol-2-yl)-2,5-diphenyltetrazolium bromide) is a tetrazolium salt that is cleaved to formazan by the succinate dehydrogenase, which is only active in viable cells. After solubilization of the formazan, the amount of dye can be quantified with a microplate reader at 570 nm along with a reference of 630 nm. For MTT assay, 5×104 primary rat hippocampal neurons from 18-day-old embryonic Sprague-Dawley rat brains were plated on each well of 24-well plates coated with poly-D-lysine. After treatment, the cells were washed with 1×PBS and were incubated with 200 μl of 1 mg/ml MTT solution (Sigma, USA) at 37° C. for 2 hr. Then the MTT-solution was removed and the cells were lysed with 200 μl isopropanol containing 0.04 M HCl and 160 mM NaOH for 10 min. Finally, the reading was done at 570 nm and 630 nm. All the samples were done in triplicates and the data was represented as the percentage of control.
# To assess the neurotoxic effect of different sized oligomers, rat primary hippocampal neurons were treated with variable concentrations of these Aβ1-42 species for 20 hr. Viability of the treated cells was compared to untreated cells using the MTT assay.
# [2] = system: primary rat hippocampal neurons; assay: Neuroprotection against ASPD induced toxicity, MTT, primary neurons; assay type: cell-based
# Procedure: as §1
# All studies used 50 nM ASPDs. The viability of the cells were measured by the MTT assay.
# [3] = system: differentiated human SH-SY5Y cells; assay: Neuroprotection against ASPD, MTT, SH-SY5Y cells; assay type: cell-based; details: ASPD alone
# PKC-ε [4] = assay: PKC-ε level in primary neurons (immunofluorescence, Western Blot); assay type: cell-based, rat; details: primary neurons, 20 hr ASPD
# Procedure: (§2) Cells were harvested in homogenizing buffer containing 10 mM Tris-Cl (pH 7.4), 1 mM PMSF (phenylmethylsulfonyl fluoride), 1 mM EGTA, 1 mM EDTA, 50 mM NaF, and 20 μM leupeptin and were lysed by sonication. The homogenate was centrifuged at 100,000×g for 15 min at 4° C. to obtain the cytosolic fraction (supernatant) and membrane (pellet). The pellet was resuspended in the homogenizing buffer by sonication. Protein concentration was measured using the Coomassie Plus (Bradford) Protein Assay kit (Pierce, USA). Following quantification, 20 μg of protein from each sample was subjected to SDS-PAGE analysis in 4-20% gradient Tris-Glycine gel (Invitrogen, USA). The separated protein was then transferred to nitrocellulose membrane. The membrane was blocked with BSA at room temperature for 15 min and was incubated with primary antibody over night at 4° C. After the incubation, it was washed three times with TBS-T (Tris Buffered saline-Tween 20) and further incubated with alkaline phosphatase conjugated secondary antibody (Jackson Immunoresearch Laboratories, USA) at 1:10,000 dilution for 45 min. The membrane was finally washed three times with TBS-T and developed using the 1-step NBT-BCIP substrate (Pierce, USA). Western Blot was imaged in the ImageQuant RT-ECL (GE Life Sciences, Piscataway, N.J.) and densitometric quantification was performed using the IMAL software (Blanchette Rockefeller Neurosciences Institute, Morgantown, W. Va.). For translocation assays, PKC activation was represented as the percentage of total protein in the membrane (membrane/cytosol+membrane).
# Cells were grown in two chambered slides (Nunc, USA) at low density. For immunofluorescence staining, the cells were washed with PBS (pH 7.4) and fixed with 4% paraformaldehyde for 4 min. Following fixation, the cells were blocked and permeabilized with 5% serum and 0.3% Triton X 100 in 1×PBS for 30 min. […] Six individual fields at 63× oil lens magnification were analyzed for the mean fluorescence intensity (MFI) in each channel. […]
# PKC-ε [5] = assay: PKC-ε translocation to membrane in SH-SY5Y cells (Western blot); assay type: cell-based, human; details: ASPD; ADDL at 20-fold higher concentrations
# Procedure: as §2
# Equal amounts of proteins were loaded in each lane (20 μg) for both the cytosol and membrane fractions. Activation of PKC was calculated as the percentage of total PKC in the membrane (membrane/cytosol+membrane).
# PKC-ε [6] = assay: PKC-ε mRNA by RT-PCR in primary rat hippocampal neurons; assay type: cell-based; details: controls and ASPD-treated cells
# Procedure: RNA was isolated from the cells using Trizol reagent (Invitrogen, USA) following the manufacturer's protocol. Briefly, 5 μg of total RNA was reverse transcribed using oligo (dT) and Superscript III (Invitrogen, USA) at 50° C. for 1 hr. Two μl of the cDNA product was amplified using primers for PKC-ε (Forward Primer—[…], Reverse primer—[…]), and β-tubulin (Forward Primer—[…], Reverse primer—[…]) (Origene, Rockville, Md.) for 25 cycles following standard PCR protocols and 55° C. annealing temperature. The PCR amplicons were analyzed in an E-Gel (Invitrogen, USA). The gel image was documented using a Fuji Image gel scanner (FLA-9000, Fuji Film) and densitometric quantification was performed using the IMAL software (Blanchette Rockefeller Neurosciences Institute, Morgantown, W. Va.). Data were represented as normalized ratio of PKC-ε OD (Optical Density) against β-tubulin OD for three independent experiments.
# Primary neurons were treated with ASPD and/or DCPLA-ME. PKC-ε mRNA was quantified by RT-PCR as described above. RNA prepared from control and treated cultured primary rat hippocampal neurons were isolated and reverse transcribed. Individual cDNA was amplified for PKC-ε and β-actin. PKC-ε expression was normalized to β-actin.
# [7] = system: rat hippocampal primary neurons; assay: Synaptic marker immunofluorescence in rat hippocampal primary neurons; assay type: cell-based
# Procedure: Cells were grown in two chambered slides (Nunc, USA) at low density. For immunofluorescence staining, the cells were washed with PBS (pH 7.4) and fixed with 4% paraformaldehyde for 4 min. Following fixation, the cells were blocked and permeabilized with 5% serum and 0.3% Triton X 100 in 1×PBS for 30 min. The cells were washed three times with 1×PBS and incubated with primary antibodies for 1 hr at 1:100 dilution. The incubation slides were then washed again three times in 1×PBS and were incubated with the FITC anti-rabbit IgG and Rhodamine anti-mouse IgG for 1 hr at 1:400 dilution. The cells were further washed and treated with DAPI (4′,6-diamidino-2′-phenylindole, dihydrochloride) (Thermo Scientific, USA) to stain the nucleus. Finally, the slides were washed and mounted in Pro Long Gold antifade mounting solution (Invitrogen, USA) and were viewed under the LSM 710 Meta confocal microscope (Zeiss) at 350 nm, 490 nm, and 540 nm excitation and 470 nm, 525 nm, and 625 nm emission for DAPI, FITC, and Rhodamine respectively. Six individual fields at 63× oil lens magnification were analyzed for the mean fluorescence intensity (MFI) in each channel. The co-localization correlation generated by the ZEN software (Zeiss).
# To estimate the synaptic damage caused by the ASPDs on primary hippocampal neurons, the expression of synaptophysin (a presynaptic marker) and PSD-95 (a postsynaptic marker) was measured by immunofluorescence staining. […] Following a 20 hr incubation period, the cells were stained for nucleus, PSD-95, and synaptophysin. Expression levels were calculated as the change of percentage in mean fluorescence intensity compared to untreated cells.
# Primary neurons, treated and untreated, were immunostained for MAP-2, synaptophysin, and PSD-95 to determine the synaptic integrity. […] Following a 20 hr incubation period, the cells were stained for MAP-2, PSD-95, and synaptophysin as described above.
# synaptophysin = assay: Synaptophysin Western Blot in primary rat hippocampal neurons; assay type: cell-based; details: ASPD
# Procedure: as §2
# [8] = 50 nM ASPD alone (ASPD) or with 100 nM DCPLA-ME, 20 hr
# [9] = 50 nM ASPD alone (ASPD) or with RA and Bryostatin-1, 20 hr
substance,measurement,setting,value
"ASPD: amylospheroids, Aβ1-42 assemblies retained by a 100 kDa filter",Viability of primary neuron (Mean ± SEM),[1]; 0.5 nM,95.12 ± 0.733 % of control
same,Viability of primary neuron (Mean ± SEM),[1]; 1 nM,89.64 ± 5.99 % of control
same,Viability of primary neuron (Mean ± SEM),[1]; 2 nM,87.75 ± 0.94 % of control
same,Viability of primary neuron (Mean ± SEM),[1]; 5 nM,70.95 ± 1.89 % of control
same,Viability of primary neuron (Mean ± SEM),[1]; 10 nM,68.68 ± 0.84 % of control
same,Viability of primary neuron (Mean ± SEM),[1]; 50 nM,57.55 ± 3.35 % of control
same,viability of neurons,[1]; 50 nM,57.1±4.9%
same,Viability of primary neuron (Mean ± SEM),[1]; 500 nM,52.94 ± 3.75 % of control
same,viability of primary neurons,"[2]; 50 nM ASPD alone, 20 hr",57.6±1.6%
same,viability (Example 25),"[2]; 50 nM ASPDs alone (ASPD) or with the treatment named, 24 hr",57.61%±1.59
same,viability compared to the untreated cells,[3],77.15±0.49%
same,PKC-ε immunofluorescence level compared to control,PKC-ε [4],60.81±5.85%
same,PKC-ε membrane translocation,PKC-ε [5],69.98±3.27%
same,reduction of PKC-ε translocation,PKC-ε [5],46%
same,PKC-ε transcript levels (in words),PKC-ε [6],did not change PKC-ε mRNA significantly
same,MAP-2 expression (mean fluorescence intensity),[7]; [8],40.7±6.2%
same,PSD-95 expression (mean fluorescence intensity),[7]; [8],67.63±7.24%
same,synaptophysin expression (mean fluorescence intensity),[7]; [8],63.3±3.8%
same,Mean fluorescence intensity of PSD-95,[7]; [9],8.16±1.21
same,Mean fluorescence intensity of synaptophysin,[7]; [9],9.74±2.5
same,decrease of PSD-95 expression,"[7]; 50 nM ASPD, 20 hr",42%
same,decrease in synaptophysin intensity,"[7]; 50 nM ASPDs, 1 μM ADDLs, 20 hr",40%
same,synaptophysin intensity compared to the control,"[7]; 50 nM ASPDs, 1 μM ADDLs, 20 hr",62.45±6.74%
same,decrease of synaptophysin expression by Western Blot,synaptophysin,26%
same,synaptophysin expression by Western Blot,synaptophysin,73.30%±3.319

# Reference: patent US10821079B2, “PKC activators and combinations thereof” (Cognitive Research Enterprises, Inc., priority 2011, dated 2020)
